Measurements published in PubChem BioAssay (NCI).
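Cultured in 96-well plates, cells were exposed to test compound for 48 hours across five concentrations. GI50 = concentration required for 50% inhibition of growth. TGI: total growth inhibition.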

Tests used:
Assay in all cases: growth of human tumour cells (NCI), 48 h
NCI-H460 lung = system: NCI-H460 lung
RXF 393 renal = system: RXF 393 renal
OVCAR-3 ovarian = system: OVCAR-3 ovarian
A498 renal = system: A498 renal
OVCAR-4 ovarian = system: OVCAR-4 ovarian
MOLT-4 leukemia = system: MOLT-4 leukemia
SNB-19 CNS = system: SNB-19 CNS
MDA-MB-231 breast = system: MDA-MB-231 breast
DU-145 prostate = system: DU-145 prostate
SNB-75 CNS = system: SNB-75 CNS
HOP-92 NSCLC = system: HOP-92 NSCLC
HS 578T breast = system: HS 578T breast
ACHN renal = system: ACHN renal
OVCAR-8 ovarian = system: OVCAR-8 ovarian
CCRF-CEM leukemia = system: CCRF-CEM leukemia
SN12C renal = system: SN12C renal
HOP-62 NSCLC = system: HOP-62 NSCLC
A549 NSCLC = system: A549 NSCLC
NCI-H23 lung = system: NCI-H23 lung
SF-539 CNS = system: SF-539 CNS
IGROV1 ovarian = system: IGROV1 ovarian
COLO 205 colon = system: COLO 205 colon
SF-268 CNS = system: SF-268 CNS
SR leukemia = system: SR leukemia
OVCAR-5 ovarian = system: OVCAR-5 ovarian
KM12 colon = system: KM12 colon
MDA-MB-435 = system: MDA-MB-435
786-0 renal = system: 786-0 renal
HL-60(TB) leukemia = system: HL-60(TB) leukemia
HCC-2998 colon = system: HCC-2998 colon
MCF7 breast = system: MCF7 breast
HCT-15 colon = system: HCT-15 colon
HT29 colon = system: HT29 colon
UACC-62 melanoma = system: UACC-62 melanoma
BT-549 breast = system: BT-549 breast
U251 CNS = system: U251 CNS
MALME-3M melanoma = system: MALME-3M melanoma
NCI-H226 lung = system: NCI-H226 lung
SK-MEL-28 melanoma = system: SK-MEL-28 melanoma
K-562 leukemia = system: K-562 leukemia
SK-OV-3 ovarian = system: SK-OV-3 ovarian
NCI/ADR-RES ovarian = system: NCI/ADR-RES ovarian
UO-31 renal = system: UO-31 renal
EKVX NSCLC = system: EKVX NSCLC
TK-10 renal = system: TK-10 renal
RPMI-8226 leukemia = system: RPMI-8226 leukemia
PC-3 prostate = system: PC-3 prostate
LOX IMVI melanoma = system: LOX IMVI melanoma
CAKI-1 renal = system: CAKI-1 renal
HCT-116 colon = system: HCT-116 colon
SK-MEL-5 melanoma = system: SK-MEL-5 melanoma
SW-620 colon = system: SW-620 colon
UACC-257 melanoma = system: UACC-257 melanoma
NCI-H522 lung = system: NCI-H522 lung
SF-295 CNS = system: SF-295 CNS

`OC[C@H]1C[C@](O)(c2ccc(F)cc2)[C@@H](c2ccc(F)cc2)O1` gave a GI50 (NCI-H460 lung) of over 100 µM, a TGI (NCI-H460 lung) of over 100 µM and a GI50 (RXF 393 renal) of 52.7 µM. The TGI (RXF 393 renal) was over 100 µM, the GI50 (OVCAR-3 ovarian) was over 100 µM and the TGI (OVCAR-3 ovarian) was over 100 µM. For the same compound, the GI50 (A498 renal) was over 100 µM, the TGI (A498 renal) was over 100 µM and the GI50 (OVCAR-4 ovarian) was over 100 µM. For the same compound, the TGI (OVCAR-4 ovarian) was over 100 µM, the GI50 (MOLT-4 leukemia) was over 100 µM and the TGI (MOLT-4 leukemia) was over 100 µM. For the same compound, the GI50 (SNB-19 CNS) was over 100 µM, the TGI (SNB-19 CNS) was over 100 µM and the GI50 (MDA-MB-231 breast) was over 100 µM. For the same compound, the TGI (MDA-MB-231 breast) was over 100 µM, the GI50 (DU-145 prostate) was over 100 µM and the TGI (DU-145 prostate) was over 100 µM. For the same compound, the GI50 (SNB-75 CNS) was over 100 µM, the TGI (SNB-75 CNS) was over 100 µM and the GI50 (HOP-92 NSCLC) was 66 µM. The TGI (HOP-92 NSCLC) was over 100 µM, the GI50 (HS 578T breast) was 44.2 µM and the TGI (HS 578T breast) was over 100 µM. For the same compound, the GI50 (ACHN renal) was over 100 µM, the TGI (ACHN renal) was over 100 µM and the GI50 (OVCAR-8 ovarian) was over 100 µM. For the same compound, the TGI (OVCAR-8 ovarian) was over 100 µM, the GI50 (CCRF-CEM leukemia) was over 100 µM and the TGI (CCRF-CEM leukemia) was over 100 µM. The GI50 (SN12C renal) was over 100 µM, the TGI (SN12C renal) was over 100 µM and the GI50 (HOP-62 NSCLC) was over 100 µM. It also gave a TGI (HOP-62 NSCLC) of over 100 µM, a GI50 (A549 NSCLC) of over 100 µM and a TGI (A549 NSCLC) of over 100 µM. For the same compound, the GI50 (NCI-H23 lung) was over 100 µM, the TGI (NCI-H23 lung) was over 100 µM and the GI50 (SF-539 CNS) was over 100 µM. It also gave a TGI (SF-539 CNS) of over 100 µM, a GI50 (IGROV1 ovarian) of 58.3 µM and a TGI (IGROV1 ovarian) of over 100 µM. It also gave a GI50 (COLO 205 colon) of over 100 µM, a TGI (COLO 205 colon) of over 100 µM and a GI50 (SF-268 CNS) of over 100 µM. For the same compound, the TGI (SF-268 CNS) was over 100 µM, the GI50 (SR leukemia) was over 100 µM and the TGI (SR leukemia) was over 100 µM. The GI50 (OVCAR-5 ovarian) was over 100 µM, the TGI (OVCAR-5 ovarian) was over 100 µM and the GI50 (KM12 colon) was over 100 µM. It also gave a TGI (KM12 colon) of over 100 µM, a GI50 (MDA-MB-435) of over 100 µM and a TGI (MDA-MB-435) of over 100 µM. For the same compound, the GI50 (786-0 renal) was over 100 µM, the TGI (786-0 renal) was over 100 µM and the GI50 (HL-60(TB) leukemia) was over 100 µM. It also gave a TGI (HL-60(TB) leukemia) of over 100 µM, a GI50 (HCC-2998 colon) of over 100 µM and a TGI (HCC-2998 colon) of over 100 µM. For the same compound, the GI50 (MCF7 breast) was over 100 µM, the TGI (MCF7 breast) was over 100 µM and the GI50 (HCT-15 colon) was over 100 µM. The TGI (HCT-15 colon) was over 100 µM, the GI50 (HT29 colon) was over 100 µM and the TGI (HT29 colon) was over 100 µM. It also gave a GI50 (UACC-62 melanoma) of over 100 µM, a TGI (UACC-62 melanoma) of over 100 µM and a GI50 (BT-549 breast) of over 100 µM. For the same compound, the TGI (BT-549 breast) was over 100 µM, the GI50 (U251 CNS) was over 100 µM and the TGI (U251 CNS) was over 100 µM. For the same compound, the GI50 (MALME-3M melanoma) was over 100 µM, the TGI (MALME-3M melanoma) was over 100 µM and the GI50 (NCI-H226 lung) was over 100 µM. It also gave a TGI (NCI-H226 lung) of over 100 µM, a GI50 (SK-MEL-28 melanoma) of over 100 µM and a TGI (SK-MEL-28 melanoma) of over 100 µM. The GI50 (K-562 leukemia) was over 100 µM, the TGI (K-562 leukemia) was over 100 µM and the GI50 (SK-OV-3 ovarian) was over 100 µM. It also gave a TGI (SK-OV-3 ovarian) of over 100 µM, a GI50 (NCI/ADR-RES ovarian) of over 100 µM and a TGI (NCI/ADR-RES ovarian) of over 100 µM. The GI50 (UO-31 renal) was over 100 µM, the TGI (UO-31 renal) was over 100 µM and the GI50 (EKVX NSCLC) was over 100 µM. For the same compound, the TGI (EKVX NSCLC) was over 100 µM, the GI50 (TK-10 renal) was over 100 µM and the TGI (TK-10 renal) was over 100 µM. For the same compound, the GI50 (RPMI-8226 leukemia) was over 100 µM, the TGI (RPMI-8226 leukemia) was over 100 µM and the GI50 (PC-3 prostate) was over 100 µM. For the same compound, the TGI (PC-3 prostate) was over 100 µM, the GI50 (LOX IMVI melanoma) was over 100 µM and the TGI (LOX IMVI melanoma) was over 100 µM. The GI50 (CAKI-1 renal) was over 100 µM, the TGI (CAKI-1 renal) was over 100 µM and the GI50 (HCT-116 colon) was 90.5 µM. For the same compound, the TGI (HCT-116 colon) was over 100 µM, the GI50 (SK-MEL-5 melanoma) was over 100 µM and the TGI (SK-MEL-5 melanoma) was over 100 µM. For the same compound, the GI50 (SW-620 colon) was over 100 µM, the TGI (SW-620 colon) was over 100 µM and the GI50 (UACC-257 melanoma) was over 100 µM. The TGI (UACC-257 melanoma) was over 100 µM, the GI50 (NCI-H522 lung) was over 100 µM and the TGI (NCI-H522 lung) was over 100 µM. It also gave a GI50 (SF-295 CNS) of over 100 µM and a TGI (SF-295 CNS) of over 100 µM.
